In brackets after ≈: the same amount, converted by molar mass.
Legend:
[1] = tested on: Mycobacterium tuberculosis; assay: Antimycobacterial activity against Mycobacterium tuberculosis H37Rv measured after 12 to 28 days by Lowenstein-Jensen method; assay type: functional; conditions: time 12-28 day
[2] = tested on: Mycolicibacterium smegmatis; assay: Antimycobacterial activity against Mycobacterium smegmatis ATCC 35797 incubated for 48 hrs by agar dilution method; assay type: functional
[3] = tested on: Mycobacterium tuberculosis; assay: Antimycobacterial activity against Mycobacterium tuberculosis H37Rv assessed as bacterial growth inhibition at 6.25 ug/ml by BACTEC MGIT method relative to control; assay type: functional
[4] = tested on: Mycobacterium tuberculosis; assay: Antimycobacterial activity against Mycobacterium tuberculosis H37Rv assessed as growth inhibition at 6.25 ug/ml by BACTEC radiometric method relative to control; assay type: functional; conditions: read-out: GI
[5] = tested on: Mycobacterium tuberculosis; assay: Antimycobacterial activity against Mycobacterium tuberculosis H37Rv ATCC27294 incubated for 7 days by microplate alamar blue assay; assay type: functional; conditions: H37Rv ATCC 27294, 168 h, time 7 day
[6] = tested on: Mycobacterium tuberculosis; assay: Antimycobacterial activity against Mycobacterium tuberculosis H37Rv; assay type: functional
[7] = tested on: Mycobacterium tuberculosis; assay: Antimycobacterial activity against Mycobacterium tuberculosis H37Rv assessed as growth inhibition at 6.25 ug/ml by microplate alamar blue assay relative to control; assay type: functional; conditions: read-out: GI
[8] = tested on: Mycobacterium tuberculosis; assay: Antimycobacterial activity against Mycobacterium tuberculosis H37Ra ATCC 25177 incubated for 7 days by microplate alamar blue assay; assay type: functional; conditions: H37Ra ATCC 25177, 168 h, time 7 day
[9] = tested on: Mycobacterium tuberculosis; assay: Bactericidal activity against Mycobacterium tuberculosis H37Ra ATCC 25177 assessed as ratio of MBC to MIC; assay type: functional
[10] = Selectivity index, ratio of IC50 for African green monkey Vero cells to MIC for antitubercular activity against Mycobacterium tuberculosis H37Ra ATCC 25177; assay type: toxicity
[11] = tested on: Mycobacterium tuberculosis; assay: Antimycobacterial activity against Mycobacterium tuberculosis H37Ra ATCC 25177 measured on 8th to 12th day by XTT reduction menadione assay; assay type: functional; conditions: time 8-12 day
[12] = tested on: Mycobacterium tuberculosis; assay: Antimycobacterial activity against Mycobacterium tuberculosis by microplate alamar blue assay; assay type: functional
[13] = tested on: Mycobacterium tuberculosis; assay: Antimycobacterial activity against Mycobacterium tuberculosis H37Rv measured after 14 days by test tube dilution technique; assay type: functional; conditions: 336 h, time 14 day
[14] = tested on: Mycobacterium tuberculosis; assay: Antimycobacterial activity against Mycobacterium tuberculosis H37Rv measured after 21 days by test tube dilution technique; assay type: functional; conditions: 504 h, time 21 day
[15] = tested on: Mycobacterium tuberculosis; assay: Antimycobacterial activity against Mycobacterium tuberculosis H37Rv assessed as growth inhibition at 50 ug/ml by Lowenstein-Jensen method relative to control; assay type: functional; conditions: read-out: GI
[16] = tested on: Mycobacterium tuberculosis; assay: Antimycobacterial activity against Mycobacterium tuberculosis H37Rv 27294 by microplate alamar blue assay; assay type: functional
[17] = Cytotoxicity against African green monkey Vero cells after 72 hrs by cell titer glo luminescent cell viability assay; assay type: cell-based; conditions: chlorocebus sabaeus
[18] = tested on: Mycobacterium tuberculosis; assay: Antimycobacterial activity against Mycobacterium tuberculosis; assay type: functional

N#CSc1ccc2nc(NC(=O)CN3C(=O)/C(=C/c4cccc(Br)c4)SC3=S)sc2c1 showed an MIC [1] of 25 µg/mL (≈ 45.7 µM).
In the case of CCCCCCCCCCCC1SCC(=O)N1NC(=O)c1ccncc1 (stereo not given), the MIC [2] is reported as 6 µg/mL (≈ 15.9 µM).
With Cc1nc2ccccc2c(=O)n1CCNC1=NC(=O)/C(=C/c2cccc(Cl)c2)S1 the inhibition at 6.25 µg/mL [3] was 99%.
For COc1ccc(C(=O)Nc2ccc(C(=O)NN3C(=O)CSC3c3ccc([N+](=O)[O-])o3)cc2)cc1 (stereo not given), the inhibition of growth at 6.25 µg/mL [4] was 98%.
O=C(NN1C(=O)CSC1c1ccccc1)c1cc(O)c(O)c(O)c1 (stereo not given) gave an MIC [5] of 0.79 µg/mL (≈ 2.28 µM).
With C/C(=N\N1C(=O)CSC1c1ccc(O)cc1)c1oc2ccc(Cl)cc2c1C (stereo not given) the MIC [6] was 25 µg/mL (≈ 62.4 µM).
Work on CC1SC(c2ccc(C#N)cc2)N(NC(=O)C(O)(c2ccccc2)c2ccccc2)C1=O (stereo not given) yielded an inhibition of growth at 6.25 µg/mL [7] of 99%.
CCCCCCCCCC1SCC(=O)N1NC(=O)c1ccncc1 (stereo not given) showed an MIC [2] of 25 µg/mL (≈ 71.5 µM).
Molecule NC(=S)N/N=C/c1ccc(OC(=O)CC2SC(=O)NC2=O)cc1 (stereo not given) has an MIC [8] of 0.031 µg/mL (≈ 0.088 µM), a Ratio [9] of 2 and a selectivity ratio [10] of over 10.
With Cc1cc(NS(=O)(=O)c2ccc(N3C(=O)CSC3c3c(Cl)cccc3Cl)cc2)no1 (stereo not given) the IC90 [11] was 0.43 µg/mL (≈ 0.888 µM).
In the case of O=C(NN1C(=O)CSC1c1ccc([N+](=O)[O-])cc1)c1coc2ccc3ccccc3c12 (stereo not given), the MIC [12] is reported as 50 µg/mL (≈ 115 µM).
Cc1nc2ccccc2c(=O)n1CCNC1=NC(=O)/C(=C/c2ccc([N+](=O)[O-])cc2)S1 gave an inhibition at 6.25 µg/mL [3] of 99%.
O=C(NN1C(=O)CSC1c1ccccc1O)c1coc2ccc3ccccc3c12 (stereo not given) gave an MIC [12] of 50 µg/mL (≈ 124 µM).
With CCOc1ccc(N2C(=O)CS/C2=N/NC(=O)COc2cnccn2)cc1 the MIC [13] was over 100 µg/mL and the MIC [14] was over 100 µg/mL.
Work on Cc1cc(NS(=O)(=O)c2ccc(N3C(=O)CSC3c3ccc(C(F)(F)F)cc3)cc2)no1 (stereo not given) yielded an IC90 [11] of 0.43 µg/mL (≈ 0.889 µM).
O=C(NN1C(=O)CSC1c1ccccc1Cl)c1cc(O)c(O)c(O)c1 (stereo not given) gave an MIC [5] of 0.79 µg/mL (≈ 2.07 µM).
Cc1cc(NS(=O)(=O)c2ccc(N3C(=O)CSC3c3ccc(F)cc3)cc2)no1 (stereo not given) showed an IC90 [11] of 0.43 µg/mL (≈ 0.992 µM).
Molecule O=C1/C(=C/c2ccc(F)cc2)SC(=S)N1Cc1nnc(-c2cccnc2SCc2ccccc2)o1 has an inhibition of growth at 50 µg/mL [15] of 99%.
With Cc1cc(NS(=O)(=O)c2ccc(N3C(=O)CSC3c3ccc(Cl)cc3)cc2)no1 (stereo not given) the IC90 [11] was 0.43 µg/mL (≈ 0.956 µM).
Molecule CCN1C(=O)/C(=C/c2ccccc2F)S/C1=N/NC(=O)c1ccncc1 has an IC90 [16] of 2.95 µg/mL (≈ 7.97 µM) and a CC50 at 72 h [17] of 22.8 µg/mL (≈ 61.4 µM).
In the case of O=C1/C(=C/c2ccccc2Cl)SC(c2ccccc2Cl)N1NCCNc1ncc([N+](=O)[O-])s1 (stereo not given), the MIC [6] is reported as 25 µg/mL (≈ 47.9 µM).
Work on O=C(NN1C(=O)CSC1c1cccc(O)c1)c1cc(O)c(O)c(O)c1 (stereo not given) yielded an MIC [5] of 0.79 µg/mL (≈ 2.18 µM).
In the case of NC(=S)N/N=C/c1ccc(OC(=O)CC2SC(=O)NC2=O)c(Cl)c1 (stereo not given), the MIC [8] is reported as 0.031 µg/mL (≈ 0.0801 µM), the Ratio [9] is reported as 2 and the selectivity ratio [10] is reported as over 10.
For CCN1C(=O)/C(=C/c2ccc(F)cc2)S/C1=N/NC(=O)c1ccncc1, the IC90 [16] was 2.95 µg/mL (≈ 7.97 µM) and the CC50 at 72 h [17] was 9.69 µg/mL (≈ 26.2 µM).
With O=C(NN1C(=O)CSC1c1ccc(O)cc1)c1coc2ccc3ccccc3c12 (stereo not given) the MIC [12] was 50 µg/mL (≈ 124 µM).
In the case of CCc1ccc(CCOc2ccc(/C=C3\SC(=S)N(CC(=O)Nc4nc5ccc(C)cc5s4)C3=O)cc2)nc1, the MIC [1] is reported as 25 µg/mL (≈ 43.5 µM).
O=C1CSC(c2ccc(Cl)cc2)N1NC(=O)C(O)(c1ccccc1)c1ccccc1 (stereo not given) showed an inhibition of growth at 6.25 µg/mL [7] of 99%.
For Cc1nc(/N=C2\C(=O)Nc3ccccc32)sc1C(=O)NN1C(=O)CSC1c1ccccc1Cl (stereo not given), the MIC [18] was 0.78 µM (≈ 0.388 µg/mL).
For CCCCCCCC1SCC(=O)N1NC(=O)c1ccncc1 (stereo not given), the MIC [2] was over 25 µg/mL.
For CCCCN1C(=O)CS/C1=N/NC(=O)COc1cnccn1, the MIC [13] was over 100 µg/mL and the MIC [14] was over 100 µg/mL.
Work on CCCCCCCCCCC1SCC(=O)N1NC(=O)c1ccncc1 (stereo not given) yielded an MIC [2] of 25 µg/mL (≈ 68.8 µM).
NC(=S)N/N=C/c1ccc(OC(=O)/C=C2\SC(=O)NC2=O)cc1 showed an MIC [8] of 0.031 µg/mL (≈ 0.0885 µM), a Ratio [9] of 2 and a selectivity ratio [10] of over 10.
For CC1SC(c2ccc(Cl)cc2)N(NC(=O)C(O)(c2ccccc2)c2ccccc2)C1=O (stereo not given), the inhibition of growth at 6.25 µg/mL [7] was 99%.
COc1ccc(C2SCC(=O)N2NC(=O)Nc2nc(-c3ccc(Cl)cc3)cc(-c3cc(OC)c(OC)c(OC)c3)n2)cc1 (stereo not given) showed an MIC [6] of 100 µg/mL (≈ 161 µM).
Molecule N#Cc1ccc(C2SCC(=O)N2NC(=O)C(O)(c2ccccc2)c2ccccc2)cc1 (stereo not given) has an inhibition of growth at 6.25 µg/mL [7] of 98%.

Source: ChEMBL document CHEMBL4813957, “Antitubercular properties of thiazolidin-4-ones - A review” (Eur J Med Chem, 2021)
